Laboratory results reported in patent US20260125400A1, “TYK2 DEGRADERS AND USES THEREOF” (Kymera Therapeutics, Inc., priority 2023, published 2026).

Target: T1, TYK2 (Homo sapiens, UniProt P29597)
T1 construct: Degradation of TYK2 in cells was quantitatively measured using Meso Scale Discovery (MSD) technology; endogenous in cells; host or cells: OCI-LY10
Assay: TYK2 MSD degradation in OCI-LY10 cells
Format: cell-based
Settings: OCI-LY10 cells, 4 to 24 hours incubation
How it was run: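 OCI-LY10 cells were treated with 9-dose 1:3 series (top 1 to 10 μM final) for 4 to 24 hours at 37° C. Lysate TYK2 quantified by MSD sandwich immunoassay; DC50 and Dmax from four-parameter inhibitor vs. response fit.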

T1 sequence (P29597 whole entry): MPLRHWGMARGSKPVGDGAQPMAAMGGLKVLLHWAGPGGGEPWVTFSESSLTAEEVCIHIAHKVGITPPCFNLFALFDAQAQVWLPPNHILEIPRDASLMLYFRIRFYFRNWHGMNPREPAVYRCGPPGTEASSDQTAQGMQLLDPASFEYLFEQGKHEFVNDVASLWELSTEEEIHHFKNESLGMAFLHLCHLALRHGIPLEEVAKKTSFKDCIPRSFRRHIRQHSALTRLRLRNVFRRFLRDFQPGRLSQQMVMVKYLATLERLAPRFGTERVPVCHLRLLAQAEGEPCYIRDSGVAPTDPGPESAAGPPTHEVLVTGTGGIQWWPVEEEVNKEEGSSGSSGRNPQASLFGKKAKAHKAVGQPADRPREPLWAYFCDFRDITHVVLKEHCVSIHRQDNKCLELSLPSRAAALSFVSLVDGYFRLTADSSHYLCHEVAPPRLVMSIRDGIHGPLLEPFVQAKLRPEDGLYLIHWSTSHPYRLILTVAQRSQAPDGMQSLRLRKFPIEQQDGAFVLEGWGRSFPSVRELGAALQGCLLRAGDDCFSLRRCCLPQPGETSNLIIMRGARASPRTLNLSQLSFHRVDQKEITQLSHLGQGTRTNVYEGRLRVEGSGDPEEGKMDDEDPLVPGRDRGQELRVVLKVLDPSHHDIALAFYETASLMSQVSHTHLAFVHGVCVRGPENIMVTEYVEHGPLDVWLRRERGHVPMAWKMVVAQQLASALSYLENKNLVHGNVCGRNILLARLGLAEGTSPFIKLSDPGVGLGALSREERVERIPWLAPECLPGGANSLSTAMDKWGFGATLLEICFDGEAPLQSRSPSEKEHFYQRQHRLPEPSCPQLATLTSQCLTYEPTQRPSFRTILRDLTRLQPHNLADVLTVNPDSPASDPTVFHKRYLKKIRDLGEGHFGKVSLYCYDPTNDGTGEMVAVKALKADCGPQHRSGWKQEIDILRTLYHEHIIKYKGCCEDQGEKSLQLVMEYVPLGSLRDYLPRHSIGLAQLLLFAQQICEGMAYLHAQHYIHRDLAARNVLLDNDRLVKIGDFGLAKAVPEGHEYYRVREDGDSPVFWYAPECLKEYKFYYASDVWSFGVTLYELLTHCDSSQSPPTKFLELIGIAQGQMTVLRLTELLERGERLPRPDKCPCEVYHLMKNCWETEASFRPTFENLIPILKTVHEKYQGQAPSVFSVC

SMILES	TYK2 MSD OCI-LY10 Dmax %
CNc1cc(N2CCc3c(-c4ccc(N5CCC6(CC5)CN(C(=O)c5ccc(C7CCC(=O)NC7=O)c(Cl)c5)C6)cn4)cccc32)nn2c(C(=O)NC3CC3F)cnc12 (mixture of isomers) [I-447]	C (C (75 to 50%))
CNc1cc(N2CCc3c(-c4ccc(CN5CCC(N6CCC(N(C)c7ccc(Cl)c(N8CCC(=O)NC8=O)c7)CC6)C(F)(F)C5)cn4)cccc32)nn2c(C(=O)N[C@@H]3C[C@@H]3F)cnc12 (stereo partly drawn) [I-784]	C (C (75 to 50%))
CNc1cc(N2CCc3c(CN4CCC(N5CC(CC6CCN(C(=O)c7ccc(Cl)c(N8CCC(=O)NC8=O)c7)CC6)C5)C(F)(F)C4)cccc32)nn2c(C(=O)N[C@@H]3C[C@@H]3F)cnc12 (stereo partly drawn) [I-753]	A (A (>90%))
CNc1cc(N2CCc3c(CN4CCC(N5CCC6(CCN(C(=O)c7cc(F)c(Cl)c(N8CCC(=O)NC8=O)c7)CC6)CC5)C(F)(F)C4)cccc32)nn2c(C(=O)N[C@@H]3C[C@@H]3F)cnc12 (stereo partly drawn) [I-712]	B (B (90 to >75%))
CNc1cc(N2CCc3c(CN4CCC(N5CCC(CN6CCN(C(=O)c7ccc(Cl)c(N8CCC(=O)NC8=O)c7)CC6)CC5)C(F)(F)C4)cccc32)nn2c(C(=O)N[C@@H]3C[C@@H]3F)cnc12 (stereo partly drawn) [I-716]	B (B (90 to >75%))
CNc1cc(N2CCc3c(CN4CCC(N5CCN(Cc6ccc(Cl)c(C7CCC(=O)NC7=O)c6)CC5)C(F)(F)C4)cccc32)nn2c(C(=O)NC3CC3F)cnc12 (stereo not drawn) [I-421]	D (D (<50%))
CNc1cc(N2CCc3c(-c4ncc(CN5CCC6(CCN(C(=O)c7cc(C)c(Cl)c(N8CCC(=O)NC8=O)c7)CC6)C(F)(F)C5)cc4Cl)cccc32)nn2c(C(=O)N[C@@H]3C[C@@H]3F)cnc12 [I-746]	B (B (90 to >75%))
CNc1cc(N2CCc3c(-c4ccc(CN5CCC6(CCN(C(=O)c7cc(C)c(Cl)c(N8CCC(=O)NC8=O)c7)CC6)C(F)(F)C5)cn4)cccc32)nn2c(C(=O)N[C@@H]3C[C@@H]3F)cnc12 [I-655]	B (B (90 to >75%))

Same assay, conditions: OCI-LY10 cells, 4 to 24 hours incubation, read-out: TYK2 MSD OCI-LY10 Rel-DC50

SMILES	DC50 [nM]
CNc1cc(N2CCc3c(-c4ccc(N5CCC6(CC5)CN(C(=O)c5ccc(C7CCC(=O)NC7=O)c(Cl)c5)C6)cn4)cccc32)nn2c(C(=O)NC3CC3F)cnc12 (mixture of isomers) [I-447]	< 10
CNc1cc(N2CCc3c(-c4ccc(CN5CCC(N6CCC(N(C)c7ccc(Cl)c(N8CCC(=O)NC8=O)c7)CC6)C(F)(F)C5)cn4)cccc32)nn2c(C(=O)N[C@@H]3C[C@@H]3F)cnc12 (stereo partly drawn) [I-784]	10 to 100
CNc1cc(N2CCc3c(CN4CCC(N5CC(CC6CCN(C(=O)c7ccc(Cl)c(N8CCC(=O)NC8=O)c7)CC6)C5)C(F)(F)C4)cccc32)nn2c(C(=O)N[C@@H]3C[C@@H]3F)cnc12 (stereo partly drawn) [I-753]	< 1
CNc1cc(N2CCc3c(CN4CCC(N5CCC6(CCN(C(=O)c7cc(F)c(Cl)c(N8CCC(=O)NC8=O)c7)CC6)CC5)C(F)(F)C4)cccc32)nn2c(C(=O)N[C@@H]3C[C@@H]3F)cnc12 (stereo partly drawn) [I-712]	< 1
CNc1cc(N2CCc3c(CN4CCC(N5CCC(CN6CCN(C(=O)c7ccc(Cl)c(N8CCC(=O)NC8=O)c7)CC6)CC5)C(F)(F)C4)cccc32)nn2c(C(=O)N[C@@H]3C[C@@H]3F)cnc12 (stereo partly drawn) [I-716]	< 1
CNc1cc(N2CCc3c(CN4CCC(N5CCN(Cc6ccc(Cl)c(C7CCC(=O)NC7=O)c6)CC5)C(F)(F)C4)cccc32)nn2c(C(=O)NC3CC3F)cnc12 (stereo not drawn) [I-421]	> 100
CNc1cc(N2CCc3c(-c4ncc(CN5CCC6(CCN(C(=O)c7cc(C)c(Cl)c(N8CCC(=O)NC8=O)c7)CC6)C(F)(F)C5)cc4Cl)cccc32)nn2c(C(=O)N[C@@H]3C[C@@H]3F)cnc12 [I-746]	< 10
CNc1cc(N2CCc3c(-c4ccc(CN5CCC6(CCN(C(=O)c7cc(C)c(Cl)c(N8CCC(=O)NC8=O)c7)CC6)C(F)(F)C5)cn4)cccc32)nn2c(C(=O)N[C@@H]3C[C@@H]3F)cnc12 [I-655]	< 10

Same assay, conditions: TYK2 degradation in OCI-LY10 cells, 4 to 24 hours incubation

SMILES	TYK2 MSD OCI-LY10 Dmax %
CNc1cc(N2CCc3c(-c4ccc(CN5CCC6(CCN(Cc7ccc(Cl)c(N8CCC(=O)NC8=O)c7)CC6)C(F)(F)C5)cn4)cccc32)nn2c(C(=O)N[C@@H]3C[C@@H]3F)cnc12 [I-289]	D (D (<50%))
COC1(c2cc(C)cc(-c3cn(CCC4CCN(C5CCN(c6cc(F)c(C7CCC(=O)NC7=O)c(F)c6)CC5)CC4)c4cnc(NC(C)=O)cc34)n2)CCOC1 (stereo not drawn) [I-1130]	B (B (90 to >75%))
CNc1cc(N2CCc3c(-c4ccc(CN5CC6(CCN(C(=O)c7ccc(C)c(N8CCC(=O)NC8=O)c7)CC6)C5)cn4)cccc32)nn2c(C(=O)N[C@@H]3C[C@@H]3F)cnc12 [I-63]	A (A (>90%))
CNc1cc(N2CCc3c(-c4cc(C)c(CN5CC6(CCN(C(=O)c7cc(C)c(Cl)c(N8CCC(=O)NC8=O)c7)CC6(F)F)C5)cn4)cccc32)nn2c(C(=O)N[C@@H]3C[C@@H]3F)cnc12 [I-958]	A (A (>90%))
CNc1cc(N2CCc3c(-c4ccc(CN5CCC6(CCN(C(=O)c7ccc(Cl)c(N8CCC(=O)NC8=O)c7)CC6)C(F)(F)C5)cn4)cccc32)nn2c(C(=O)NC3CCC3)cnc12 [I-824]	B (B (90 to >75%))
COC1(c2cc(C)cc(-c3cn(C4CCN(CC5CCN(c6ccc(NC7CCC(=O)NC7=O)c(F)c6)CC5)CC4)c4cnc(NC(C)=O)cc34)n2)CCOC1 (stereo not drawn) [I-842]	A (A (>90%))
CNc1cc(N2CCc3c(C#CCN4CC5(CCN(C(=O)c6ccc(Cl)c(N7CCC(=O)NC7=O)c6)CC5(F)F)C4)cccc32)nn2c(C(=O)N[C@@H]3C[C@@H]3F)cnc12 [I-241]	C (C (75 to 50%))
CNc1cc(N2CCc3c(-c4cc(N5CCC6(CCN(C(=O)c7ccc(Cl)c(N8CCC(=O)NC8=O)c7)CC6)CC5)ccn4)cccc32)nn2c(C(=O)N[C@@H]3C[C@@H]3F)cnc12 [I-248]	C (C (75 to 50%))
CNc1cc(N2CCc3c(N4CCN(C5CCN(C(=O)c6ccc(Cl)c(N7CCC(=O)NC7=O)c6)CC5)CC4)cccc32)nn2c(C(=O)N[C@@H]3C[C@@H]3F)cnc12 [I-94]	D (D (<50%))
CNc1cc(N2CCc3c(-c4ccc(CN5CCN(C6CCN(C(=O)c7cc(C)c(Cl)c(N8CCC(=O)NC8=O)c7)CC6(F)F)CC5)cn4)cccc32)nn2c(C(=O)N[C@@H]3CC[C@H]3OC)cnc12 (stereo partly drawn) [I-1161]	B (B (90 to >75%))

Same assay, conditions: TYK2 degradation in OCI-LY10 cells, 4 to 24 hours incubation, read-out: TYK2 MSD OCI-LY10 Rel-DC50

SMILES	DC50 [nM]
CNc1cc(N2CCc3c(-c4ccc(CN5CCC6(CCN(Cc7ccc(Cl)c(N8CCC(=O)NC8=O)c7)CC6)C(F)(F)C5)cn4)cccc32)nn2c(C(=O)N[C@@H]3C[C@@H]3F)cnc12 [I-289]	> 100
COC1(c2cc(C)cc(-c3cn(CCC4CCN(C5CCN(c6cc(F)c(C7CCC(=O)NC7=O)c(F)c6)CC5)CC4)c4cnc(NC(C)=O)cc34)n2)CCOC1 (stereo not drawn) [I-1130]	< 10
CNc1cc(N2CCc3c(-c4ccc(CN5CC6(CCN(C(=O)c7ccc(C)c(N8CCC(=O)NC8=O)c7)CC6)C5)cn4)cccc32)nn2c(C(=O)N[C@@H]3C[C@@H]3F)cnc12 [I-63]	< 1
CNc1cc(N2CCc3c(-c4cc(C)c(CN5CC6(CCN(C(=O)c7cc(C)c(Cl)c(N8CCC(=O)NC8=O)c7)CC6(F)F)C5)cn4)cccc32)nn2c(C(=O)N[C@@H]3C[C@@H]3F)cnc12 [I-958]	< 1
CNc1cc(N2CCc3c(-c4ccc(CN5CCC6(CCN(C(=O)c7ccc(Cl)c(N8CCC(=O)NC8=O)c7)CC6)C(F)(F)C5)cn4)cccc32)nn2c(C(=O)NC3CCC3)cnc12 [I-824]	< 10
COC1(c2cc(C)cc(-c3cn(C4CCN(CC5CCN(c6ccc(NC7CCC(=O)NC7=O)c(F)c6)CC5)CC4)c4cnc(NC(C)=O)cc34)n2)CCOC1 (stereo not drawn) [I-842]	< 1
CNc1cc(N2CCc3c(C#CCN4CC5(CCN(C(=O)c6ccc(Cl)c(N7CCC(=O)NC7=O)c6)CC5(F)F)C4)cccc32)nn2c(C(=O)N[C@@H]3C[C@@H]3F)cnc12 [I-241]	< 10
CNc1cc(N2CCc3c(-c4cc(N5CCC6(CCN(C(=O)c7ccc(Cl)c(N8CCC(=O)NC8=O)c7)CC6)CC5)ccn4)cccc32)nn2c(C(=O)N[C@@H]3C[C@@H]3F)cnc12 [I-248]	< 10
CNc1cc(N2CCc3c(N4CCN(C5CCN(C(=O)c6ccc(Cl)c(N7CCC(=O)NC7=O)c6)CC5)CC4)cccc32)nn2c(C(=O)N[C@@H]3C[C@@H]3F)cnc12 [I-94]	> 100
CNc1cc(N2CCc3c(-c4ccc(CN5CCN(C6CCN(C(=O)c7cc(C)c(Cl)c(N8CCC(=O)NC8=O)c7)CC6(F)F)CC5)cn4)cccc32)nn2c(C(=O)N[C@@H]3CC[C@H]3OC)cnc12 (stereo partly drawn) [I-1161]	< 1
